Experiment: physchem
Details: 25 °C, pH 4, aqueous buffer, thermodynamic from solid
Method: 25 mg compound are placed in 2 ml solvent. […] Thereafter, the solution or suspension is filtered and the remaining solution is analyzed via HPLC. The solubility is determined by comparison of the total area of the substance peak to a calibration curve (external standard).
Thereafter, the solution was centrifuged and analyzed via HPLC. The solubility was determined by comparison of the total area of the substance peak to a calibration curve (external standard). The measurements were conducted in triplicates.

Question: Which solubility does the source give for `CCc1c(N2CC[C@H](O)C2=O)cccc1S(=O)(=O)N[C@@H](CNC(=O)c1ccc(Cl)s1)C(=O)OCCc1nccn1C.Cl` [Example 2, 2-(1-Methyl-1H-imidazol-2-yl)ethyl 3-[(5-chlorothiophene-2-carbonyl)amino]-N-{2-ethyl-3-[(3S)-3-hydroxy-2-oxopyrrolidin-1-yl]benzene-1-sulfonyl}-S-alaninate hydrochloride] here?
Answer: > 500 mg/mL
